Structures are written as SMILES. Entries after “also recorded” stand apart in the source; their conditions may differ.

The subject of one data set is renal angiomyolipomas. The note with it: oral, up to 2 years, 16 patients; cited from earlier work.
Data set [1] can be described thus: Determination of rapamycin in lung and blood following oropharyngeal aspiration (OPA) and oral gavage (LC-MS/MS). Particulars: 1 mg/kg; for Blood concentration of rapamycin: OPA, 72 h post-dose. It is filed as in vivo, male C57BL/6 mice. The protocol: Source (for oral gavage): Rapamune Oral® (Pfizer) for oral administration, Lot No.: MWGT, Expiration: July 2016.
Animals: Male C57BL/6 mice, approximately 8 weeks of age, from Charles River Laboratories, Inc, Raleigh, NC. Animals were fed Certified Purina Rodent Chow #5002 and were furnished tap water ad libitum. The analysis of each feed batch for nutrient levels and possible contaminants was performed by the supplier, examined by the Study Director, and maintained in the study records. […] Mice were housed (one per cage) in polycarbonate cages with stainless steel bar lids accommodating a water bottle. Cage sizes are approximately 11.5″×7.5″×5″ high (70 sq. in. floor space) for mice. Contact bedding was Sani-Chips hardwood chips (P. J. Murphy Forest Products Co.; Montville, NJ). Mice were quarantined for a period of 5 days before use on a study. A veterinarian or qualified designee examined the animals prior to their release from quarantine. Temperature and relative humidity in RTI animal rooms were continuously monitored, controlled, and recorded using an automated system (Siebe/Barber-Colman Network 8000 System with Revision 4.4.1 for Signal® software [Siebe Environmental Controls (SEC)/Barber-Colman Company; Loves Park, IL]). The target environmental ranges were 64-79° F. (18° C.-26° C.) for temperature and 30-70% relative humidity, with a 12-h light cycle per day. At the end of the in-life phase, the mice were euthanized by overexposure to carbon dioxide. […]
Dosing: Each animal was weighed prior to dosing to determine the amount of dose to be administered. […] The dose administered to each animal was determined from the weight of the full syringe minus that of the empty syringe. The dosing time was recorded. […]
The concentrations of standards were arranged so that each standard came from an alternate stock standard. A six-point calibration curve, each made in triplicate, was employed for analyte quantitation. […] The concentration range determined was from 1-2000 ng/mL in blood and 2-2000 ng/mL in lung homogenate. […]

The test system of data set [2] is phosphorylated S6 protein. The note with it: lung tissue concentration.
Excerpt: In the mouse strain used (C57bl/6), the mouse airway and alveolar epithelial cells have constitutively active (phosphorylated, “p”) S6 protein.
For data set [3] the following is noted: 2012 meta-analysis; cited from earlier work.

Consider `CO[C@H]1C[C@@H]2CC[C@@H](C)[C@@](O)(O2)C(=O)C(=O)N2CCCC[C@H]2C(=O)O[C@H]([C@H](C)C[C@@H]2CC[C@@H](O)[C@H](OC)C2)CC(=O)[C@H](C)/C=C(\C)[C@@H](O)[C@@H](OC)C(=O)[C@H](C)C[C@H](C)/C=C/C=C/C=C/1C` [Rapamycin, (3S,6R,7E,9R,10R,12R,14S,15E,17E,19E,21S,23S,26R,27R,34aS)-9,10,12,13,-14,21,22,23,24,25,26,27,32,33,34,34a-hexadecahydro-9,27-dihydroxy-3-[(1R)-2-[(1S,3R,4R)-4-hydroxy-3-methoxycyclohexyl]-1-methylethyl]-10,21-dimethox-y-6,8,12,14,20,26-hexamethyl-23,27-epoxy-3H-pyrido[2,1-c][1,4]oxaazacyclohentriacontine-1,5,11,28,29(4H,6H,31H)-pentone], for which the Renal angiomyolipoma response result with renal angiomyolipomas is given as “sustained regression”. The “Blood concentration of rapamycin” value is listed as “below the limit of quantitation; also recorded: undetectable” in data set [1] (group) and “<ELOQ” in data set [1] (individual animal). Further, the “Lung concentration of rapamycin” value in data set [1] (gavage (Rapamune Oral), 1 h post-dose, individual animal) is reported as “<LOQ”. Also, the “Drug in the lung that substantially abrogates mTOR signaling as measured by pS6” value in data set [2] was “about 70 ng/g”.
Take `CO[C@H]1C[C@@H]2CC[C@@H](C)[C@@](O)(O2)C(=O)C(=O)N2CCCC[C@H]2C(=O)O[C@H]([C@H](C)C[C@@H]2CC[C@@H](OCCO)[C@H](OC)C2)CC(=O)[C@H](C)/C=C(\C)[C@@H](O)[C@@H](OC)C(=O)[C@H](C)C[C@H](C)/C=C/C=C/C=C/1C` [everolimus]: in data set [3], the “Cancer patients that may experience mild grade (pulmonary) toxicity” value is recorded as 10%.
Regarding `CO[C@H]1C[C@@H]2CC[C@@H](C)[C@@](O)(O2)C(=O)C(=O)N2CCCC[C@H]2C(=O)O[C@H]([C@H](C)C[C@@H]2CC[C@@H](OC(=O)C(C)(CO)CO)[C@H](OC)C2)CC(=O)[C@H](C)/C=C(\C)[C@@H](O)[C@@H](OC)C(=O)[C@H](C)C[C@H](C)/C=C/C=C/C=C/1C` [temsirolimus], the “Cancer patients that may experience mild grade (pulmonary) toxicity” value in data set [3] is 10%.

These data come from patent publication US12171874B2 (OrphAI Therapeutics Inc., priority 2013, dated 2024).
